Active and inactive are the calls of the source. The rule behind the calls is not given here.
Tests used:
[1] = target: Mucin-1 (Homo sapiens) (UniProt P15941); experiment: Inhibition of biotinylated MUC1-CD dimerization (unknown origin) assessed as decrease in oligomer formation at 100 uM by streptavidin-HRP based assay relative to control
[2] = target: Mucin-1 (Homo sapiens) (UniProt P15941); experiment: Inhibition of soluble unbound MUC1-CD dimerization (unknown origin) by immunoblot analysis
[3] = target: Mucin-1 (Homo sapiens) (UniProt P15941); experiment: Inhibition of MUC1-CD dimerization (unknown origin) expressed in HEK293 cells assessed as disruption of interaction between Flag-MUC1-CD and GFP-MUC1-CD by coimmunoprecipitation assay; type: cell-based
[4] = target: Mucin-1 (Homo sapiens) (UniProt P15941); experiment: Inhibition of MUC1-CD dimerization in human MCF10A cells assessed as reduction in MUC1-C levels at 50 to 100 uM incubated for 3 days by immunoblot analysis; type: cell-based
[5] = test system: MCF-10A; experiment: Growth inhibition of immortalized human MCF10A cells assessed as reduction in cell number up to 100 uM incubated for 3 days by MTS assay; type: functional, cell-based
[6] = test system: MCF-10A; experiment: Induction of apoptosis in immortalized human MCF10A cells assessed as caspase-9 cleavage at 75 uM incubated for 3 days by immunoblot analysis; type: functional, cell-based
[7] = test system: MCF-10A; experiment: Induction of cell membrane integrity loss in immortalized human MCF10A cells at 75 uM incubated for 3 days by propidium iodide staining based flow cytometry; type: functional
[8] = test system: MCF7; experiment: Reduction of MUC1 mRNA levels in human MCF7 cells at 75 uM incubated for 3 days by qRT-PCR analysis; type: functional, cell-based
[9] = target: Mucin-1 (Homo sapiens) (UniProt P15941); experiment: Inhibition of MUC1 nuclear import in human MCF7 cells assessed as decrease in nuclear MUC1-C levels at 75 uM incubated for 3 days by immunoblot analysis; type: cell-based
[10] = target: Mucin-1 (Homo sapiens) (UniProt P15941); experiment: Inhibition of MUC1 in human MCF7 cells assessed as decrease in MUC1 protein level in whole cell lysates at 75 uM incubated for 3 days by immunoblot analysis; type: subcellular; settings: Lysate
[11] = test system: MCF7; experiment: Induction of cell membrane integrity loss in human MCF7 cells assessed as PI uptake level at 75 uM incubated for 3 days by propidium iodide staining based flow cytometry (reference value: 22%); type: functional
[12] = test system: MCF-10A; experiment: Induction of cell membrane integrity loss in immortalized human MCF10A cells assessed as PI uptake level at 50 uM incubated for 3 days by propidium iodide staining based flow cytometry (reference value: 23%); type: functional
[13] = test system: MCF-10A; experiment: Induction of cell membrane integrity loss in immortalized human MCF10A cells assessed as PI uptake level at 75 uM incubated for 3 days by propidium iodide staining based flow cytometry (reference value: 23%); type: functional
[14] = test system: MCF7; experiment: Growth inhibition in human MCF7 cells assessed as reduction in cell number at 75 uM incubated for 3 days in presence of MUC1 siRNA by MTS assay; type: functional, cell-based
[15] = test system: MCF7; experiment: Induction of apoptosis in human MCF7 cells assessed as caspase-9 cleavage at 75 uM incubated for 3 days by immunoblot analysis; type: functional, cell-based
[16] = test system: MCF-10A; experiment: Induction of cell membrane integrity loss in immortalized human MCF10A cells assessed as PI uptake level at 100 uM incubated for 3 days by propidium iodide staining based flow cytometry (reference value: 23%); type: functional
[17] = test system: MCF7; experiment: Inhibition of colony formation in human MCF7 cells assessed as decrease in colonies at 25 uM incubated for 2 weeks by crystal violet staining based assay; type: functional, cell-based
[18] = test system: MCF7; experiment: Inhibition of colony formation in human MCF7 cells assessed as decrease in colonies at 50 to 75 uM incubated for 2 weeks by crystal violet staining based assay; type: functional
[19] = target: Mucin-1 (Homo sapiens) (UniProt P15941); experiment: Inhibition of MUC1 in human BT474 cells assessed as reduction in MUC1-C expression at 25 to 75 uM incubated for 3 days by immunoblot analysis; type: cell-based
[20] = test system: BT-474; experiment: Growth inhibition of human BT474 cells assessed as reduction in cell number up to 150 uM incubated for 3 days by MTS assay; type: functional, cell-based
[21] = test system: HCC1937; experiment: Growth inhibition of human HCC1937 cells assessed as reduction in cell number up to 150 uM incubated for 3 days by MTS assay; type: functional, cell-based
[22] = test system: BT-474; experiment: Inhibition of colony formation in human BT474 cells assessed as decrease in colonies at 25 to 75 uM incubated for 2 weeks by crystal violet staining based assay; type: functional, cell-based
[23] = test system: ZR-75-1; experiment: Growth inhibition of human ZR-75-1 cells assessed as reduction in cell number incubated up to 2 days by MTS assay; type: functional, cell-based

Sequence of Mucin-1 (Homo sapiens) (P15941 24-1097 limits assumed): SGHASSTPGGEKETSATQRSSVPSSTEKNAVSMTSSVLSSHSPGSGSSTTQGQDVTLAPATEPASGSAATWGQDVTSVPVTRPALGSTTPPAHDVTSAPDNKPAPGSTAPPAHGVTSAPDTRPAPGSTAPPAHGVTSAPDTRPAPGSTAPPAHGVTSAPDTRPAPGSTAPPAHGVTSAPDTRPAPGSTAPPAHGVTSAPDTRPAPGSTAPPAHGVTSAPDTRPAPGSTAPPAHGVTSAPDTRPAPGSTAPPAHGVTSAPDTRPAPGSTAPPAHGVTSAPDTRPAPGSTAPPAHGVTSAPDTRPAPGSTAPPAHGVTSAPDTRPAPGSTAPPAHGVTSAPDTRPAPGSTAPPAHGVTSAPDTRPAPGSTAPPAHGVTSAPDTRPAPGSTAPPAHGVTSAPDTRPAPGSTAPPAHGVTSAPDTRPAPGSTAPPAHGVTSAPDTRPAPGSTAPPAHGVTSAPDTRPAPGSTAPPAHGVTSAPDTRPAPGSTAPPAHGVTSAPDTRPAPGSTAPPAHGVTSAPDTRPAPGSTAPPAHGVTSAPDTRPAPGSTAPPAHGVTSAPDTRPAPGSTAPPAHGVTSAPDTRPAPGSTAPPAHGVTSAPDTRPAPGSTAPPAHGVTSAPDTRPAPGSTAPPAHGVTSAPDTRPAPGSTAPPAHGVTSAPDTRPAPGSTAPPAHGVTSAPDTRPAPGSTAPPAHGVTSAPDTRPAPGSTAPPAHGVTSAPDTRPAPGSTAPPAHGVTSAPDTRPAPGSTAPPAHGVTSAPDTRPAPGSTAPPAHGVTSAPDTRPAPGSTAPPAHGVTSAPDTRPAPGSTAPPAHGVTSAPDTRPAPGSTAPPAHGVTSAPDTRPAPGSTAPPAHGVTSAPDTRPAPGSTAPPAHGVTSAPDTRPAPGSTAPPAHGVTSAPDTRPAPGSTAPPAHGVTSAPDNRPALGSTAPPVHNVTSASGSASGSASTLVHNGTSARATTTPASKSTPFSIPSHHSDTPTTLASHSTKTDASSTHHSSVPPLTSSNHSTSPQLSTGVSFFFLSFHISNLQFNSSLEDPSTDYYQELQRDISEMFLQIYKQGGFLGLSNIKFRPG
Sequence of Mucin-1 (Homo sapiens) (P15941 1098-1255 limits assumed): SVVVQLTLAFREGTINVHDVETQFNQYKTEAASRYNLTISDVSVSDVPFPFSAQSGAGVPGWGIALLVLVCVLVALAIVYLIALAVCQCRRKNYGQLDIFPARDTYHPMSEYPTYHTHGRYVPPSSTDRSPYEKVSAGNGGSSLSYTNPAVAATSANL

Row | SMILES | inhibition [1] | inhibition [3] | inhibition [4] | growth inhibition (GI) [5] | Activity [6] | Activity [7] | Activity [8] | inhibition [9] | inhibition [10] | Activity [11] [%] | Activity [12] [%] | Activity [13] [%] | further results
1 | O=c1cc(-c2ccccc2)oc2cc(O)c(O)c(O)c12 [BAICALEIN] | inactive | inactive | inactive | inactive | inactive | inactive | inactive | inactive | inactive | 19 | 27 | 28 | inhibition [2]: inactive
2 | CCCc1c(C)c2ccc(OC(=O)C(C)NC(=O)OCc3ccccc3)cc2oc1=O (stereo not drawn) | > 50% | – | – | – | – | – | – | – | – | – | – | – | –
3 | CCOC(=O)c1oc2cc(OCc3ccc(C(=O)OC)o3)ccc2c(=O)c1-c1ccc(C(=O)OC)o1 | > 50% | – | – | – | – | – | – | – | – | – | – | – | –
4 | O=c1cc(-c2ccc(O)cc2)oc2cc(O)cc(O)c12 [APIGENIN] | – | Active | Active | Active | Active | Active | Active | Active | Active | 64 | 81 | 98 | inhibition ([2]; concentration not given here): 100%; growth inhibition (GI) [14]: inactive; Activity [15]: Active; Activity [16]: 96%; inhibition [17]: Active; inhibition (INH) [18]: 100%; inhibition [19]: Active; growth inhibition (GI) [20]: Active; growth inhibition (GI) [21]: inactive; inhibition [22]: Active
5 | CCCCc1cc2c(=O)c(-c3cc[nH]n3)c(C)oc2cc1O | > 50% | – | – | – | – | – | – | – | – | – | – | – | –
6 | O=c1c(O)c(-c2ccc(O)cc2)oc2cc(O)cc(O)c12 | – | – | – | – | – | – | – | – | – | – | – | – | growth inhibition (GI) [23]: Active

From ChEMBL document CHEMBL4420073, “Small molecule inhibitors of MUC1 and methods of identifying the same” (2015)
